Data on two compounds can be found in patent publication US8129404B2, “Compounds and uses thereof” (Plexxikon Inc., priority 2009, dated 2012).

Where two headings read alike, the source gives them in different places.

One series deals with T1, B-Raf (Homo sapiens, UniProt P15056).
T1 construct: purchased Upstate Biotechnology
The series is described as follows: Raf kinase biochemical assay (biotin-MEK1 phosphorylation, AlphaScreen), B-Raf. Conditions: 100 μM ATP, biotin-MEK1 substrate. The procedure: (§1) Assays for biochemical and cell based activity are known in the art, for example, as described in PCT publication WO 2007/002433, the disclosure of which is hereby incorporated by reference as it relates to such assays. For example, the biochemical activity IC50 values are determined with respect to inhibition of B-Raf kinase activity, c-Raf-1 kinase activity, or B-Raf V600E kinase activity, where inhibition of phosphorylation of a peptide substrate is measured as a function of compound concentration. Compounds to be tested are diluted in dimethyl sulfoxide to a concentration of 0.1 mM. These are serially diluted 15 μL into 30 μL of dimethyl sulfoxide seven times in 96 well plates for a total of 8 dilution points, and for each dilution point 1 μL is added to a well of an assay plate. Plates are prepared such that each well in a 384 well plate contains 1 μL of compound in 10 μL volume with 0.1 ng Raf enzyme (i.e. any of B-Raf, c-Raf-1 or B-Raf V600E, Upstate Biotechnology or prepared by methods known to one of skill in the art), 50 mM HEPES, pH 7.0, 50 mM NaCl, 2 mM MgCl2, 1 mM MnCl2, 0.01% Tween-20, 1 mM DTT, and 100 nM biotin-MEK1 as substrate. The reaction is started with addition of 10 μL of 200 μM ATP (i.e. final 100 μM ATP). […] The plates are incubated for 3 hours at room temperature and read on Envision reader (Perkin Elmer). […]

For the next series, the target named is T2, c-Raf-1 (Homo sapiens, UniProt P04049).
T2 construct: purchased Upstate Biotechnology
The experiment in a line: Raf kinase biochemical assay (biotin-MEK1 phosphorylation, AlphaScreen), c-Raf-1. Conditions: 100 μM ATP, biotin-MEK1 substrate. The procedure: as §1

Another series concerns the target T3, B-Raf mutant V600E (Homo sapiens, UniProt P15056, V600E).
T3 construct: purchased Upstate Biotechnology
The experiment in a line: Raf kinase biochemical assay (biotin-MEK1 phosphorylation, AlphaScreen), B-Raf V600E. Conditions: 100 μM ATP, biotin-MEK1 substrate. The procedure:
as §1

A further series deals with Kit (Homo sapiens, UniProt P10721). The series is described as follows: Kinase biochemical assay, Kit.
For a further series, the target named is TrkA (Homo sapiens, UniProt P04629). The series is described as follows: Kinase biochemical assay, TrkA.
Sequence of TrkA (P04629 33-796, species assumed): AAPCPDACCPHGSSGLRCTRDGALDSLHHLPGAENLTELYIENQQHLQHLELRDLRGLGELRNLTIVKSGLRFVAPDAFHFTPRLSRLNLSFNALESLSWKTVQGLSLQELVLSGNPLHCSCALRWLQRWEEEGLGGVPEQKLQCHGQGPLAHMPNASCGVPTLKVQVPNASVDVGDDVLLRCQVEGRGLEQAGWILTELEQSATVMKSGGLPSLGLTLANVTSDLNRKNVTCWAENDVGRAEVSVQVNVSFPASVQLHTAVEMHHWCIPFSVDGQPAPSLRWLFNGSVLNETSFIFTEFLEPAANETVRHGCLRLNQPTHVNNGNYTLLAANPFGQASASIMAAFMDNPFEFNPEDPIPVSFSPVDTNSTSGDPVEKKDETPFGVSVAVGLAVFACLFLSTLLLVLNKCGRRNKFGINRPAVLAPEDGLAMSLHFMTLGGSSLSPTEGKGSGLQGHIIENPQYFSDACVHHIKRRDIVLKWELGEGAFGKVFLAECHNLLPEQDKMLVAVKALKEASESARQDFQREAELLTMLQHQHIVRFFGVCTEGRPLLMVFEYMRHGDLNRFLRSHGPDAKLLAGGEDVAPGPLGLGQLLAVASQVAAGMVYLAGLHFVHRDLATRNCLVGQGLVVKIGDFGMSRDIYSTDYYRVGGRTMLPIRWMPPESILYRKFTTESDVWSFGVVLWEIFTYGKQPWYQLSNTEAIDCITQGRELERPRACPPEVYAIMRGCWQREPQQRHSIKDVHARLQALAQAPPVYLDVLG
The target of another series is Src (Homo sapiens, UniProt P12931). The series is described as follows: Kinase biochemical assay, Src.
In a further series the target is Btk (Homo sapiens, UniProt Q06187). The series is described as follows: Kinase biochemical assay, Btk.
Sequence of Btk (Q06187 whole entry, species assumed): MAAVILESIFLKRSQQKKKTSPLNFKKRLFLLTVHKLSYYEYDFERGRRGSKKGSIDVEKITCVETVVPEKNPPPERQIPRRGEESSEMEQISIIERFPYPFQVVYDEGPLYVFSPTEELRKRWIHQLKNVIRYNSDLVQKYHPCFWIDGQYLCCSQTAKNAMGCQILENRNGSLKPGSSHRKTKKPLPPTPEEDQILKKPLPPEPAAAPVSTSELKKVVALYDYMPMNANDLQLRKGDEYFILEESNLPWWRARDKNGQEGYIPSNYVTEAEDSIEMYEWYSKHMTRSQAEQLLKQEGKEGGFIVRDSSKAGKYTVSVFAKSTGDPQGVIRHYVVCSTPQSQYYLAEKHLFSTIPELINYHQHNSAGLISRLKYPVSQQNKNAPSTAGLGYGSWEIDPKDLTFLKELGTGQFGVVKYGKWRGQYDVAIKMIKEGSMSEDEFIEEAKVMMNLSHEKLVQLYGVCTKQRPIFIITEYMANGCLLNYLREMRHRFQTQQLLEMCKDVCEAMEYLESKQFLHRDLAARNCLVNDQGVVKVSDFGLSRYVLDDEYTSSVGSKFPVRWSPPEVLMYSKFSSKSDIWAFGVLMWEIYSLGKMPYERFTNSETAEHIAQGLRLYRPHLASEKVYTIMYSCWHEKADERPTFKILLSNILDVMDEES
The target of another series is Fms (Homo sapiens, UniProt P07333). The experiment in a line: Kinase biochemical assay, Fms.
For another series, the target named is Hgk (Homo sapiens, UniProt O95819). The series is described as follows: Kinase biochemical assay, Hgk.
In the next series the target is Kdr (Homo sapiens, UniProt P35968). The experiment in a line: Kinase biochemical assay, Kdr.
Sequence of Kdr (P35968 20-1356, species assumed): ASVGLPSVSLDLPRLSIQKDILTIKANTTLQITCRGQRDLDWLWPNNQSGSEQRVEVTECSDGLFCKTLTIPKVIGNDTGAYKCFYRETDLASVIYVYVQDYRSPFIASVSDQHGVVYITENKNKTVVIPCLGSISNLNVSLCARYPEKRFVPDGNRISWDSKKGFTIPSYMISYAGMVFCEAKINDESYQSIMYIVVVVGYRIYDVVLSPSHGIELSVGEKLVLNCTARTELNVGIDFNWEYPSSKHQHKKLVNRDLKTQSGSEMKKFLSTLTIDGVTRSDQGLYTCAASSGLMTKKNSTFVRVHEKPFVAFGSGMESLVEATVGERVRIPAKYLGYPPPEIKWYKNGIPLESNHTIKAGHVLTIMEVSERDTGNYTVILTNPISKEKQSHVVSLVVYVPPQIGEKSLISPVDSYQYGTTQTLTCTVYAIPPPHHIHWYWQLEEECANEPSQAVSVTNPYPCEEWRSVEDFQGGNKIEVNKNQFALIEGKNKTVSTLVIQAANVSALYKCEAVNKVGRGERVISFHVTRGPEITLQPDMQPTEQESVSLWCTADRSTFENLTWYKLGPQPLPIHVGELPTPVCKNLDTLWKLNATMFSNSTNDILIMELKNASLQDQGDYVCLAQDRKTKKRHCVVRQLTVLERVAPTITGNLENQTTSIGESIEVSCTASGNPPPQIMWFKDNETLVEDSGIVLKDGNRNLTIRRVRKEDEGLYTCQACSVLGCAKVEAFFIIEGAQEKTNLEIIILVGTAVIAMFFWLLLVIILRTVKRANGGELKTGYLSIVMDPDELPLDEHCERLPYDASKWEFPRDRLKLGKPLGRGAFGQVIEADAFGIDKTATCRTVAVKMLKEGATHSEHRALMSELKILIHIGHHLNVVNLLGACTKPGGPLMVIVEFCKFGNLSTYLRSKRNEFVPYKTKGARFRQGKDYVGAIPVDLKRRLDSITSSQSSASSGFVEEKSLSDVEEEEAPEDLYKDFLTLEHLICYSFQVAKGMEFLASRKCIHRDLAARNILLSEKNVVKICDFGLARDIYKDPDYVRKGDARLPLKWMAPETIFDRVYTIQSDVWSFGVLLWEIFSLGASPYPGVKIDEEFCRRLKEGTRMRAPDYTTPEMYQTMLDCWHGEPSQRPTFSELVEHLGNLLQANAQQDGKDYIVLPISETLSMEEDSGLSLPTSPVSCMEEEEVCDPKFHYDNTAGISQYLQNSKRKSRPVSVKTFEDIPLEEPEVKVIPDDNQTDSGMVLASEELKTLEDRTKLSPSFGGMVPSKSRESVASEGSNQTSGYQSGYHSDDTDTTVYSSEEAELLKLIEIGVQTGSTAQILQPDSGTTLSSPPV
The nature of series [1]: Turbidity assay of relative solubility in aqueous buffers of varying pH. The format is physicochemical. The procedure:
As an indication of relative solubility, the turbidity of compounds in aqueous solutions is assessed. To assess possible compound properties in different physiological compartments, such as stomach, intestine, and blood, a series of aqueous buffers with varying pH is used. Thus each compound is diluted into four different physiologically relevant buffers and solution turbidity is measured by spectrophotometry.
Compounds are dissolved at a concentration of 25 mM in dimethyl sulfoxide, then serially diluted 1:1 into a 96 well plate, diluting 10 times in pure dimethyl sulfoxide, with the final well of each row a dimethyl sulfoxide blank. In an assay plate, 99 μL of appropriate buffer is added to each well, and 1 μL of each sample dilution is added to the buffer, achieving a range of final total concentrations in aqueous solutions having different pH. […] Control compounds pyrene, estriol and propranolol HCl are also assessed. Plates are spun and then mixed for 1 minute, and the absorbance is read using a Tecan Safire II to read wavelengths in the visible range (490, 535, and 650 nm) at four locations per well, reflecting the degree of turbidity present. The average optical density for each wavelength in each well is graphed vs. compound concentration, and the concentration at which the curve crosses a threshold O.D. of 0.01 for each wavelength is reported as the endpoint turbidity assay result. The average of the three wavelengths is used to compare turbidity of compounds. Compounds are considered to have low solubility if the threshold concentration is <31.3 μM, moderate solubility if the threshold concentration is 31.3 μM to 250 μM, and high solubility if the threshold concentration is >250 μM.

For another series, the target named is T4, CYP1A2 (Homo sapiens, UniProt P05177).
T4 construct: purchased BD Biosciences
T4 sequence (P05177 1-516): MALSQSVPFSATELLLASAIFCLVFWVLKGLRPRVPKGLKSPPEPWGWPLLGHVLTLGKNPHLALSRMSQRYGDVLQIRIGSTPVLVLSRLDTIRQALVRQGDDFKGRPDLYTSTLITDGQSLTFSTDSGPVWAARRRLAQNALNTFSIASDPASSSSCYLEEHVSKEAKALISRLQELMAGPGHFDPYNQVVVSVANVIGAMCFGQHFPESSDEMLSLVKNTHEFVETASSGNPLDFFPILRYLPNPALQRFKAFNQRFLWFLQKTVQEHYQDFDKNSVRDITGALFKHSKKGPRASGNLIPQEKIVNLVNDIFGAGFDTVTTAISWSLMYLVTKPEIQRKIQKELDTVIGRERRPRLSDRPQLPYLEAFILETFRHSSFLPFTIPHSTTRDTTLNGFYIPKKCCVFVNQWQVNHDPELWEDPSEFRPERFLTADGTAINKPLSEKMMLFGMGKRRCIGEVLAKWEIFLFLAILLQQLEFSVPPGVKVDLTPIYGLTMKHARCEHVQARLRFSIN
The series is described as follows: CYP inhibition fluorescence assay, CYP1A2. The format is in vitro ADME. The settings on record: substrate CEC; read-out: Cyp IC50 1A2. As to the method: (§2) CYP (Cytochrome P450) enzymes are the major drug metabolizing enzymes present in the liver. The inhibition of CYP enzyme activity (IC50) for each of CYP1A2, CYP2C19, CYP2C9, CYP2D6, CYP3A4(BFC) and CYP3A4(BQ) is determined for compounds, where inhibition of metabolism of a known substrate leads to a decrease in the fluorescence of the metabolized product. The fluorescence of the product is monitored as a function of compound concentration. Compounds are dissolved in dimethyl sulfoxide to a concentration of 100 mM. These are diluted 1 μL into 82 μL of acetonitrile. An 11 μL aliquot of this solution is then added to 204 μL of cofactor mix (1.3% NADPH Regeneration system Solution A, 1.04% NADPH Regeneration system Solution B from BD Biosciences, 5% acetonitrile and 0.05% dimethyl sulfoxide). These are then serially diluted 160 μL to 160 μL co-factor mix for a total of 10 points. A 10 μL aliquot of this final mixture is dispensed into 384 well assay plates and incubated for 10 minutes at 37° C. Enzyme and substrate mix (10 μL; 0.5 pmol CYP1A2/5 μM CEC; 1.0 pmol CYP2C9/75 μM MFC; 0.5 pmol CYP2C19/25 μM CEC; 1.5 pmol CYP2D6/1.5 μM AMMC; 1.0 pmol CYP3A4/50 μM BFC; or 1.0 pmol CYP3A4/40 μM BQ) is added to these assay plates. […] (CYP1A2-15 min; CYP2C9-45 min; CYP2C19, 2D6 and 3A4-30 min) and read in a Tecan Safire 2 plate reader (CYP1A2, 2C19 and 3A4 409 ex/460 em; CYP2C9 and 2D6 409 ex/530 em). […]

Another series concerns the target T5, CYP2C19 (Homo sapiens, UniProt P33261).
T5 construct: purchased BD Biosciences
The experiment in a line: CYP inhibition fluorescence assay, CYP2C19. In kind it is in vitro ADME. The settings on record: substrate CEC; read-out: Cyp IC50 2C19. The procedure: as §2

For another series, the target named is T6, CYP2C9 (Homo sapiens, UniProt P11712).
T6 construct: purchased BD Biosciences
T6 sequence (P11712 whole entry): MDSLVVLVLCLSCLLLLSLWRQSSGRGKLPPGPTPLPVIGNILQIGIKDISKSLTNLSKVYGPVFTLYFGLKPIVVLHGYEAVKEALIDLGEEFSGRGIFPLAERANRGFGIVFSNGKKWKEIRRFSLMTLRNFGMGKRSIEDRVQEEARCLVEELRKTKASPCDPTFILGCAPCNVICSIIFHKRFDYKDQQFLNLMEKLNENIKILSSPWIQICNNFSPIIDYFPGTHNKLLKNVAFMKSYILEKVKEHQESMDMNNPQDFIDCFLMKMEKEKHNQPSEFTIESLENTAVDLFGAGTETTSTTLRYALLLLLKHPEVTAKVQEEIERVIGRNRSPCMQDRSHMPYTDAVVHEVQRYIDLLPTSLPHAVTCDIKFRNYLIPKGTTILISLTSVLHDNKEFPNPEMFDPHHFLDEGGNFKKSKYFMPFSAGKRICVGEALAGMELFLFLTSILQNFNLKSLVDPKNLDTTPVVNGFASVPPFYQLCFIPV
The experiment in a line: CYP inhibition fluorescence assay, CYP2C9. The format is in vitro ADME. The settings on record: substrate MFC; read-out: Cyp IC50 2C9. The procedure:
as §2

Another series has as its target T7, CYP2D6 (Homo sapiens, UniProt P10635).
T7 construct: purchased BD Biosciences
The series is described as follows: CYP inhibition fluorescence assay, CYP2D6. The settings on record: substrate AMMC; read-out: Cyp IC50 2D6. The format is in vitro ADME. As to the method:
as §2

The target in a further series is T8, CYP3A4(BFC) (Homo sapiens, UniProt P08684).
T8 construct: purchased BD Biosciences
T8 sequence (P08684 whole entry): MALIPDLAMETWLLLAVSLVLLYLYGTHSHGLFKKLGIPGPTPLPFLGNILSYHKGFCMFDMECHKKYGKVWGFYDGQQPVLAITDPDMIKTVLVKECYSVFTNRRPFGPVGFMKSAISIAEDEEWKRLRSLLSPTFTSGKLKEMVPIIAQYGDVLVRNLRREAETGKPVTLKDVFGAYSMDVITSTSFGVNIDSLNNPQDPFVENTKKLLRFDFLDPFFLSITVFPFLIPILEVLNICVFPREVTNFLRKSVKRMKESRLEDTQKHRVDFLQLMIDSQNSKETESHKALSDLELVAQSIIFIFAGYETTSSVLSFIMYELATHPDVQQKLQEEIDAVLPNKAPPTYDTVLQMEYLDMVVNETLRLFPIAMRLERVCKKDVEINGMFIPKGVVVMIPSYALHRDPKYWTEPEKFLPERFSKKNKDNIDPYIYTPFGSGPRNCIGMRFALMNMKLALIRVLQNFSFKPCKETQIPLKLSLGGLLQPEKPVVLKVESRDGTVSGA
The experiment in a line: CYP inhibition fluorescence assay, CYP3A4 with BFC substrate. The format is in vitro ADME. Conditions: read-out: Cyp IC50 3A4(BFC). As to the method: as §2

The next series has as its target T9, CYP3A4(BQ) (Homo sapiens, UniProt P08684).
T9 construct: purchased BD Biosciences
The series is described as follows: CYP inhibition fluorescence assay, CYP3A4 with BQ substrate. In kind it is in vitro ADME. The settings on record: read-out: Cyp IC50 3A4(BQ). As to the method: as §2

A short description of series [2]: pKa of weakly basic and weakly acidic centers. The settings on record: approximate. In kind it is physicochemical.
Where [3] appears, read: pH 1.4 (Simulated Gastric Fluid).
The mark [4] stands for this setting: pH 4.5 (Simulated Intestinal fluid).
Where [5] appears, read: pH 6.8 (Simulated Intestinal fluid).
[6] abbreviates: read-out: pKa of N-7 of the pyrrolo[2,3-b]pyridine portion (weakly basic).
The mark [7] stands for this setting: read-out: pKa of the sulfonamide nitrogen (weakly acidic).

T9 sequence (P08684 whole entry): as above
T7 sequence (P10635 whole entry): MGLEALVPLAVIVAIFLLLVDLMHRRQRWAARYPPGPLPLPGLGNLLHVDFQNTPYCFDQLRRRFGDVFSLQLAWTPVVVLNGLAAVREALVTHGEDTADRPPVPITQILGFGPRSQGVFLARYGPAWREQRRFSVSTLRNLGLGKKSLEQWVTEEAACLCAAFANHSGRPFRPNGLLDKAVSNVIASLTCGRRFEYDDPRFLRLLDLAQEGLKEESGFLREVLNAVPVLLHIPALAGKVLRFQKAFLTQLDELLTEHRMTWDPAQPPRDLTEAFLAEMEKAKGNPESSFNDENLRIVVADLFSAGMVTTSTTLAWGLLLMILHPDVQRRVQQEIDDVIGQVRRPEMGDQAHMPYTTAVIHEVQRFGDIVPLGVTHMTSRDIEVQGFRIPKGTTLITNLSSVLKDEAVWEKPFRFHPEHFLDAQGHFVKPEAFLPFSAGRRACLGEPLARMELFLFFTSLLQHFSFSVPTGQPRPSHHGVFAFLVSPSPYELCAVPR
T1 sequence (P15056 whole entry): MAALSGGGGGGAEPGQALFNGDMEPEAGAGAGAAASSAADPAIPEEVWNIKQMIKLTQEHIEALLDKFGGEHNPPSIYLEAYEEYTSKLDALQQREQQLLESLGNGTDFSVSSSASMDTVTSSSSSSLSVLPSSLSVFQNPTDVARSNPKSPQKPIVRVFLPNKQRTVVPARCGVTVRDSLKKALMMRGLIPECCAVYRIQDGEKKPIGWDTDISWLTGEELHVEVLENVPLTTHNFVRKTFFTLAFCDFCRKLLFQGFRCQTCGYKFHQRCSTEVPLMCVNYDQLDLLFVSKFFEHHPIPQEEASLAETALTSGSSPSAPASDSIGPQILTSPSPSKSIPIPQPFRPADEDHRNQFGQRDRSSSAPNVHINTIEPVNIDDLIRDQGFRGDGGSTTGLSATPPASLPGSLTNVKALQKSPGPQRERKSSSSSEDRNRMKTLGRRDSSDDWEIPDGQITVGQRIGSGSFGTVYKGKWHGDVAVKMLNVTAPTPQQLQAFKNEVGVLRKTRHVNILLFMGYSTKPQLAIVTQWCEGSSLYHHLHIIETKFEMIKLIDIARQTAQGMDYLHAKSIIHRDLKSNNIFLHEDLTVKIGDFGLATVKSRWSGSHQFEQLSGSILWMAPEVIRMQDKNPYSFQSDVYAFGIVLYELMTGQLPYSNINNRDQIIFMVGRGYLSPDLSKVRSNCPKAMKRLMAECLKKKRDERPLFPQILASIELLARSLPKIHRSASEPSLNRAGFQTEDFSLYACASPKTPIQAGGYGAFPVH

As for `N#Cc1ccnc2[nH]cc(C(=O)c3c(F)ccc(NS(=O)(=O)c4ccc(C(F)(F)F)cc4)c3F)c12` [Compound P-0001, N-[3-(4-cyano-1H-pyrrolo[2,3-b]pyridine-3-carbonyl)-2,4-difluoro-phenyl]-4-trifluoromethyl-benzenesulfonamide], the IC50 on B-Raf is < 0.1 µM; against c-Raf-1, < 0.1 µM; against B-Raf mutant V600E, < 1 µM; on Kit, 1 to 10 µM; on TrkA, 1 to 10 µM; at Src, 1 to 10 µM. The half-maximal inhibitory concentration (IC50) at Btk, against Fms, at Hgk, at Kdr, on CYP1A2 and on CYP2C19 was > 10 µM in each case. For the same compound, the IC50 at CYP2C9, on CYP2D6, on CYP3A4(BFC) and at CYP3A4(BQ) was > 10 µM throughout. In addition, the “turbidity threshold (L, M, H)” value in [1] (setting [3]) is recorded as “L (low solubility if the threshold concentration is <31.3 μM)”; in series [1] (setting [4]), “L (low solubility if the threshold concentration is <31.3 μM)”; in [1] (setting [5]), “L (low solubility if the threshold concentration is <31.3 μM)”; in series [1] (pH 7.4 (Hepes Buffer)) it was “M (moderate solubility if the threshold concentration is 31.3 μM to 250 μM)”. The pKa in [2] (setting [6]) is 4 to 5; in series [2] (setting [7]), ~7.
As for `C#Cc1ccnc2[nH]cc(C(=O)c3c(F)ccc(NS(=O)(=O)c4ccc(C(F)(F)F)cc4)c3F)c12` [Compound P-0002, N-[3-(4-ethynyl-1H-pyrrolo[2,3-b]pyridine-3-carbonyl)-2,4-difluoro-phenyl]-4-trifluoromethyl-benzenesulfonamide], the half-maximal inhibitory concentration (IC50) on B-Raf was < 0.1 µM; against c-Raf-1 it was < 0.1 µM; against B-Raf mutant V600E, < 1 µM; on TrkA, > 10 µM; at Src it was ~1 µM; at Btk it was > 10 µM. Also, the half-maximal inhibitory concentration (IC50) against Fms was > 10 µM; on Kdr, ~1 µM; on CYP1A2 it was > 10 µM; at CYP2C19, > 10 µM; at CYP2C9, < 5 µM; at CYP2D6, > 10 µM. The 50% inhibitory concentration (IC50) on CYP3A4(BFC) was 5 to 10 µM; on CYP3A4(BQ), > 10 µM. Also, the “turbidity threshold (L, M, H)” value is given as “L (low solubility if the threshold concentration is <31.3 μM)” in series [1] (setting [3]), “L (low solubility if the threshold concentration is <31.3 μM)” in [1] (setting [4]), “M (moderate solubility if the threshold concentration is 31.3 μM to 250 μM)” in series [1] (setting [5]) and “M (moderate solubility if the threshold concentration is 31.3 μM to 250 μM)” in series [1] (pH 7.4 (Hepes Buffer)). For the same compound, the pKa in series [2] (setting [6]) was 4 to 5; in [2] (setting [7]), ~7.
